Measurements as given in PubChem BioAssay AID1845206 (Molecular Pharmacology Branch, DTP, NCI, 2023).
Several values for one entry are separate records, joined by “and”; a condition that tells them apart may be missing. Equal entries are not always repeated. Activity calls are given as the source filed them. The calls were made as follows: active = viability on the fitted dose curve at most 10% of control; inactive = the rest.

Test system: NCI-H1618 multicellular tumor spheroid viability
Experiment: Anticancer human tumor NCI-H1618 cell line growth inhibition;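 also: spheroids exposed to agents for 7 days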
Conditions: for viability, T/C: stronger effect = lower value
Method in brief: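 Complex spheroids of malignant cells with endothelial cells and mesenchymal stem cells; agents alone or combined, from near clinical Cmax (or 10 microM if unknown) down in half-log steps, 0.25% DMSO final.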

[1] = curve of first compound, second compound 0.003 µM
[2] = curve of first compound, second compound 0.00949 µM
[3] = curve of first compound, second compound 0.03 µM
[4] = curve of first compound, second compound 0.0949 µM
[5] = curve of first compound, second compound 0.3 µM
[6] = second compound 0.003 µM, first compound 0.0949 µM
[7] = second compound 0.003 µM, first compound 0.3 µM
[8] = second compound 0.003 µM, first compound 0.949 µM
[9] = second compound 0.003 µM, first compound 3 µM
[10] = second compound 0.00949 µM, first compound 0.0949 µM
[11] = second compound 0.00949 µM, first compound 0.3 µM
[12] = second compound 0.00949 µM, first compound 0.949 µM
[13] = second compound 0.00949 µM, first compound 3 µM
[14] = second compound 0.03 µM, first compound 0.0949 µM
[15] = second compound 0.03 µM, first compound 0.3 µM
[16] = second compound 0.03 µM, first compound 0.949 µM
[17] = second compound 0.03 µM, first compound 3 µM
[18] = second compound 0.0949 µM, first compound 0.0949 µM
[19] = second compound 0.0949 µM, first compound 0.3 µM
[20] = second compound 0.0949 µM, first compound 0.949 µM
[21] = second compound 0.0949 µM, first compound 3 µM
[22] = second compound 0.3 µM, first compound 0.0949 µM
[23] = second compound 0.3 µM, first compound 0.3 µM
[24] = second compound 0.3 µM, first compound 0.949 µM
[25] = second compound 0.3 µM, first compound 3 µM

O=C(c1cc(Cc2n[nH]c(=O)c3ccccc23)ccc1F)N1CCN(C(=O)C2CC2)CC1 + CC[C@@]1(O)C(=O)OCc2c1cc1n(c2=O)Cc2cc3c(CN(C)C)c(O)ccc3nc2-1
active: viability, T/C (second compound 0.003 µM, first compound 9.49 µM) 3.53% | viability, T/C (second compound 0.003 µM, first compound 30 µM) 3.79% | viability, T/C [10] 2.05% | viability, T/C [11] 2.74% | viability, T/C [12] 1.49% | viability, T/C [13] 2.37% | viability, T/C (second compound 0.00949 µM, first compound 9.49 µM) 9.35% | viability, T/C (second compound 0.00949 µM, first compound 30 µM) 2.81% | viability, T/C [14] 2.9% | viability, T/C [15] 1.36% | viability, T/C [16] 1.85% | viability, T/C [17] 1.67% | viability, T/C (second compound 0.03 µM, first compound 9.49 µM) 2.73% | viability, T/C (second compound 0.03 µM, first compound 30 µM) 2.96% | viability, T/C [19] 1.67% | viability, T/C [20] 2.53% | viability, T/C [21] 1.83% | viability, T/C (second compound 0.0949 µM, first compound 9.49 µM) 2.3% | viability, T/C (second compound 0.0949 µM, first compound 30 µM) 2.69% | viability, T/C [22] 1.51% | viability, T/C [23] 1.22% | viability, T/C [24] 1.9% | viability, T/C [25] 1.37% | viability, T/C (second compound 0.3 µM, first compound 9.49 µM) 1.77% | viability, T/C (second compound 0.3 µM, first compound 30 µM) 3.42%
< 94.9 nM: IC50 [2] | IC50 [3] | IC50 [4] | IC50 [5]
1250 nM: IC50 [1]
inactive: viability, T/C [6] 89% | viability, T/C [7] 84% | viability, T/C [8] 61.2% | viability, T/C [9] 15% | viability, T/C [18] 13.1%

CC1COCCN1c1cc(-c2ccnn2C)c2ccnc(-c3ccn[nH]3)c2n1 (stereo not given)
inactive: viability, T/C (compound 0.0316 µM) 66.6% and 84.9% and 71.4% | viability, T/C (compound 0.1 µM) 36.7% and 35.1% and 32.9%
active: viability, T/C (compound 1 µM) 1.99% and 2.55% and 7.57% | viability, T/C (compound 3.16 µM) 1.12% and 1.22% and 2.57% | viability, T/C (compound 10 µM) 2.74% and 1.68% and 1.22%
60 nM and 70.9 nM and 64.3 nM: IC50 (curve of compound)
5.46% and 8.95% and 25.5%: viability, T/C (compound 0.316 µM)

Cc1sc2c(c1C)C(c1ccc(Cl)cc1)=NC(CC(=O)Nc1ccc(O)cc1)c1nnc(C)n1-2 (stereo not given)
inactive: viability, T/C (compound 0.00949 µM) 109% (2×) and 110% | viability, T/C (compound 0.03 µM) 105% and 108% and 115% | outcome (compound 0.0949 µM) | viability, T/C (compound 0.0949 µM) 100% | viability, T/C (compound 0.3 µM) 102% and 95.7% and 56.4% | viability, T/C (compound 0.949 µM) 91.1% and 80.5% and 47% | viability, T/C (compound 3 µM) 33.8% and 35.4% and 16.8%
2160 nM and 2060 nM and 567 nM: IC50 (curve of compound)

Cc1sc2c(c1C)C(c1ccc(Cl)cc1)=NC(CC(=O)Nc1ccc(O)cc1)c1nnc(C)n1-2 (stereo not given) + CC[C@@]1(O)C(=O)OCc2c1cc1n(c2=O)Cc2cc3c(CN(C)C)c(O)ccc3nc2-1
< 9.49 nM: IC50 [3] | IC50 [4] | IC50 [5]
active: viability, T/C [9] 1.67% | viability, T/C [11] 2.24% | viability, T/C [12] 0.92% | viability, T/C [13] 0.93% | viability, T/C (second compound 0.03 µM, first compound 0.00949 µM) 1.53% | viability, T/C (second compound 0.03 µM, first compound 0.03 µM) 17% | viability, T/C [14] 1.42% | viability, T/C [15] 1.1% | viability, T/C [16] 0.9% | viability, T/C [17] 0.76% | viability, T/C (second compound 0.0949 µM, first compound 0.00949 µM) 1.43% | viability, T/C (second compound 0.0949 µM, first compound 0.03 µM) 1.5% | viability, T/C [18] 1.55% | viability, T/C [19] 0.99% | viability, T/C [20] 0.71% | viability, T/C [21] 15.8% | viability, T/C (second compound 0.3 µM, first compound 0.00949 µM) 1.23% | viability, T/C (second compound 0.3 µM, first compound 0.03 µM) 1.1% | viability, T/C [22] 0.98% | viability, T/C [23] 0.97% | viability, T/C [24] 0.73% | viability, T/C [25] 0.63%
inactive: viability, T/C (second compound 0.003 µM, first compound 0.00949 µM) 96.6% | viability, T/C (second compound 0.003 µM, first compound 0.03 µM) 85.2% | viability, T/C [6] 89.1% | viability, T/C [7] 61.3% | viability, T/C [8] 27.2% | viability, T/C (second compound 0.00949 µM, first compound 0.00949 µM) 55.5% | viability, T/C (second compound 0.00949 µM, first compound 0.03 µM) 21.2% | viability, T/C [10] 29.5%
11 nM: IC50 [2]
453 nM: IC50 [1]
